Data on eight compounds can be found in BindingDB's records for doi:10.1016/j.bmcl.2007.07.028 (Bristol-Myers Squibb, 2007).

By IC50 is commonly meant the concentration needed to halve the response being measured.

The nature of this assay: Antagonist activity at CCR2 in human PBMCs assessed as inhibition of MCP1-induced chemotaxis.

Structures are written as SMILES.

As for `Cc1ccc(CNC[C@H](NC(=O)CNC(=O)c2cc(C(F)(F)F)ccc2NC(=O)NC(C)C)C(=O)NC(C)(C)C)c(C)c1` [(S)-1-(2-((2-(3-(2,4-dimethylbenzylamino)-1-(tert-butylamino)-1-oxopropan-2-ylamino)-2-oxoethyl)carbamoyl)-4-(trifluoromethyl)phenyl)-3-isopropylurea], the IC50 was determined as 240 nM.
The value for `Cc1ccc(CNC[C@H](NC(=O)CNC(=O)c2cc(C(F)(F)F)ccc2NCc2ccccc2)C(=O)NC(C)(C)C)c(C)c1` [(S)-N-(2-(3-(2,4-dimethylbenzylamino)-1-(tert-butylamino)-1-oxopropan-2-ylamino)-2-oxoethyl)-2-(benzylamino)-5-(trifluoromethyl)benzamide] was 39 nM.
The value for `CCNc1cc(C(=O)NCC(=O)N[C@@H](CNCc2ccc(C)cc2C)C(=O)NC(C)(C)C)cc(C(F)(F)F)c1` [(S)-N-(2-(3-(2,4-dimethylbenzylamino)-1-(tert-butylamino)-1-oxopropan-2-ylamino)-2-oxoethyl)-3-(ethylamino)-5-(trifluoromethyl)benzamide] was 190 nM.
Turning to `Cc1ccc(CNC[C@H](NC(=O)CNC(=O)c2cccc(C(F)(F)F)c2)C(N)=O)c(C)c1` [(S)-N-(2-(3-(2,4-dimethylbenzylamino)-1-amino-1-oxopropan-2-ylamino)-2-oxoethyl)-3-(trifluoromethyl)benzamide], the IC50 was above 1500 nM.
For the compound `Cc1ccc(CNC[C@H](NC(=O)CNC(=O)c2cc(C(F)(F)F)ccc2N)C(=O)NC(C)(C)C)c(C)c1` [(S)-N-(2-(3-(2,4-dimethylbenzylamino)-1-(tert-butylamino)-1-oxopropan-2-ylamino)-2-oxoethyl)-2-amino-5-(trifluoromethyl)benzamide], the IC50 was determined as 260 nM.
For the compound `Cc1ccc(CNC[C@H](NC(=O)CNC(=O)c2cccc(C(F)(F)F)c2)C(=O)NC(C)(C)C)c(C)c1` [(S)-N-(2-(3-(2,4-dimethylbenzylamino)-1-(tert-butylamino)-1-oxopropan-2-ylamino)-2-oxoethyl)-3-(trifluoromethyl)benzamide], the IC50 is above 3000 nM.
For the compound `Cc1ccc(CNC[C@H](NC(=O)CNC(=O)c2cc(N)cc(C(F)(F)F)c2)C(=O)NC(C)(C)C)c(C)c1` [(S)-N-(2-(3-(2,4-dimethylbenzylamino)-1-(tert-butylamino)-1-oxopropan-2-ylamino)-2-oxoethyl)-3-amino-5-(trifluoromethyl)benzamide], the IC50 came to 720 nM.
Consider `CCNc1ccc(C(F)(F)F)cc1C(=O)NCC(=O)N[C@@H](CNCc1ccc(C)cc1C)C(=O)NC(C)(C)C` [(S)-N-(2-(3-(2,4-dimethylbenzylamino)-1-(tert-butylamino)-1-oxopropan-2-ylamino)-2-oxoethyl)-2-(ethylamino)-5-(trifluoromethyl)benzamide], for which the IC50 was 100 nM.
